Measured values taken from article PMC8026479 (Cancer Chemotherapy and Pharmacology, 2021).
Where two headings read alike, the source gives them in different places.

Experiments:
[1] = tested on: chemotherapy-induced myelosuppression in ES-SCLC patients; assay: Study G1T28-03 Part 1 DLTs and myelosuppression endpoints (with topotecan); format: in vivo, human
Excerpt: G1T28-03 (NCT02514447) was a multicentre Phase Ib/IIa study in patients with previously treated ES-SCLC [14]. Patients were aged ≥ 18 years and had histologically or cytologically confirmed ES-SCLC that had progressed during or after prior first- or second-line chemotherapy, measurable disease per RECIST version 1.1, an ECOG performance status of 0–2, and adequate organ function. Part 1 was a Phase Ib, open-label, dose-finding portion. Part 2 was a Phase IIa, randomized, double-blind, placebo-controlled portion. […] In Part 1 of the study, blood samples for PK analysis were collected at prespecified time points on Cycle 1 Day 1 and Cycle 1 Day 4 for all patients.

[2] = Study G1T28-1-01 plasma PK, first-in-human single dose; format: in vivo; conditions: for Vd: read-out: Vz
[3] = G1T28-03 Part 1, 240 mg/m2 + topotecan 1.00 mg/m2 (n = 8)
[4] = G1T28-03 Part 1, 280 mg/m2 + topotecan 0.75 mg/m2 (n = 7)
[5] = G1T28-03 Part 1, total (n = 32)
[6] = both sexes, human, plasma, iv, 6 mg/m2, healthy volunteers, single 30-min IV 6 mg/m2 (n = 3), mean
[7] = both sexes, human, plasma, iv, 12 mg/m2, healthy volunteers, single 30-min IV 12 mg/m2 (n = 3), mean
[8] = both sexes, human, plasma, iv, 24 mg/m2, healthy volunteers, single 30-min IV 24 mg/m2 (n = 3), mean
[9] = both sexes, human, plasma, iv, 49 mg/m2, healthy volunteers, single 30-min IV 49 mg/m2 (n = 3), mean
[10] = both sexes, human, plasma, iv, 96 mg/m2, healthy volunteers, single 30-min IV 96 mg/m2 (n = 6), mean
[11] = both sexes, human, plasma, healthy volunteers, single 30-min IV 6 mg/m2 (n = 3), mean
[12] = both sexes, human, plasma, healthy volunteers, single 30-min IV 96 mg/m2 (n = 6), mean
[13] = both, human, plasma, intravenous, […]2, healthy volunteers, BED cohort […]2 (n = 12), mean
[14] = both, human, plasma, intravenous, […]2, healthy volunteers, both […]2 cohorts (n = 18), mean
[15] = both, human, plasma, iv, […]2, healthy volunteers, single 30-min IV […]2 SAD cohort (n = 6), mean
[16] = healthy volunteers, single 30-min IV 6 mg/m2 (n = 3), mean
[17] = healthy volunteers, single 30-min IV 96 mg/m2 (n = 6), mean

SMILES: CN1CCN(c2ccc(Nc3ncc4cc5n(c4n3)C3(CCCCC3)CNC5=O)nc2)CC1 [trilaciclib]
- Occurrence of Grade 3 or 4 hematologic laboratory abnormalities [1, 3]: 7 (87.5) n (%)
- Occurrence of IV antibiotic use [1, 3]: 1 (12.5) n (%)
- Occurrence of RBC transfusions on/after Week 5 [1, 3]: 2 (25.0) n (%)
- Occurrence of SN [1, 3]: 3 (37.5) n (%)
- Occurrence of infection SAEs [1, 3]: 1 (12.5) n (%)
- Occurrence of platelet transfusions [1, 3]: 0 n (%)
- Occurrence of pulmonary infection SAEs [1, 3]: 1 (12.5) n (%)
- patients reporting DLTs ([1]; G1T28-03 Part 1, 280 mg/m2 + topotecan 0.75 mg/m2): 2 of 7
- DSN in Cycle 1, mean (SD) [1, 4]: 2 (3.6) days
- MAHE, event rate [1, 4]: 0.085 per week
- Mean ANC Nadir in Cycle 1 [1, 4]: 0.86 (0.594) ×109/L
- Occurrence of ESA administrations [1, 4]: 0 n (%)
- Occurrence of FN [1, 4]: 1 (14.3) n (%)
- Occurrence of G-CSF administration [1, 4]: 2 (28.6) n (%)
- Occurrence of Grade 3 or 4 decreased hemoglobin laboratory values [1, 4]: 1 (14.3) n (%)
- Occurrence of Grade 3 or 4 decreased platelet count values [1, 4]: 2 (28.6) n (%)
- Occurrence of Grade 3 or 4 hematologic laboratory abnormalities [1, 4]: 7 (100.0) n (%)
- Occurrence of IV antibiotic use [1, 4]: 2 (28.6) n (%)
- Occurrence of RBC transfusions on/after Week 5 [1, 4]: 1 (14.3) n (%)
- Occurrence of SN [1, 4]: 2 (28.6) n (%)
- Occurrence of infection SAEs [1, 4]: 0 n (%)
- Occurrence of platelet transfusions [1, 4]: 1 (14.3) n (%)
- Occurrence of pulmonary infection SAEs [1, 4]: 0 n (%)
- DSN in Cycle 1, mean (SD) [1, 5]: 3 (5.1) days
- MAHE, event rate [1, 5]: 0.107 per week
- Occurrence of ESA administrations [1, 5]: 5 (15.6) n (%)
- Occurrence of FN [1, 5]: 1 (3.1) n (%)
- Occurrence of G-CSF administration [1, 5]: 14 (43.8) n (%)
- Occurrence of Grade 3 or 4 decreased hemoglobin laboratory values [1, 5]: 12 (37.5) n (%)
- Occurrence of Grade 3 or 4 decreased platelet count values [1, 5]: 8 (25.0) n (%)
- Occurrence of Grade 3 or 4 hematologic laboratory abnormalities [1, 5]: 30 (93.8) n (%)
- Occurrence of IV antibiotic use [1, 5]: 8 (25.0) n (%)
- Occurrence of RBC transfusions on/after Week 5 [1, 5]: 9 (28.1) n (%)
- Occurrence of SN [1, 5]: 10 (31.3) n (%)
- Occurrence of infection SAEs [1, 5]: 5 (15.6) n (%)
- Occurrence of platelet transfusions [1, 5]: 2 (6.3) n (%)
- Occurrence of pulmonary infection SAEs [1, 5]: 4 (12.5) n (%)
- clearance [2, 6]: 3130 mL/min
- Vd [2, 6]: 1460 L
- clearance [2, 7]: 2700 mL/min
- Vd [2, 7]: 1770 L
- clearance [2, 8]: 2930 mL/min
- Vd [2, 8]: 2310 L
- clearance [2, 9]: 2930 mL/min
- Vd [2, 9]: 3430 L
- clearance [2, 10]: 2370 mL/min
- Vd [2, 10]: 3050 L
- Tmax [2, 11]: 0.25 h
- half-life [2, 11]: 5.32 h
- half-life ([2]; both sexes, human, plasma, healthy volunteers, single 30-min IV 12 mg/m2 (n = 3), mean): 7.62 h
- AUC(0-inf) ([2]; both sexes, human, plasma, healthy volunteers, single 30-min IV 12 mg/m2 (n = 3), mean, read-out: AUC0-inf): 143 ng·h/mL
- half-life ([2]; both sexes, human, plasma, healthy volunteers, single 30-min IV 24 mg/m2 (n = 3), mean): 9.28 h
- AUC(0-inf) ([2]; both sexes, human, plasma, healthy volunteers, single 30-min IV 24 mg/m2 (n = 3), mean, read-out: AUC0-inf): 279 ng·h/mL
- Cmax ([2]; both sexes, human, plasma, healthy volunteers, single 30-min IV 24 mg/m2 (n = 3), mean, read-out: Cmax): 255 ng/mL
- half-life ([2]; both sexes, human, plasma, healthy volunteers, single 30-min IV 49 mg/m2 (n = 3), mean): 12.9 h
- Tmax [2, 12]: 0.37 h
- half-life [2, 12]: 14.7 h
- Tmax ([2]; both, human, plasma, intravenous, […]2): 0.47 h
- clearance [2, 13]: 2100 mL/min
- Vd [2, 13]: 2640 L
- clearance [2, 14]: 2050 mL/min
- Vd [2, 14]: 2580 L
- half-life ([2]; both, human, plasma, iv, […]2): 14.5 h
- clearance [2, 15]: 1950 mL/min
- Vd [2, 15]: 2460 L
- AUC(0-inf) [2, 16]: 66.6 ng·h/mL
- Cmax [2, 16]: 50.4 ng/mL
- Cmax ([2]; healthy volunteers, single 30-min IV 12 mg/m2 (n = 3), mean): 119 ng/mL
- AUC(0-inf) ([2]; healthy volunteers, single 30-min IV 49 mg/m2 (n = 3), mean): 518 ng·h/mL
- AUC(0-inf) [2, 17]: 1341 ng·h/mL
- Cmax [2, 17]: 910 ng/mL
